According to PubChem BioAssay AID1745844 (Carcinogenic Potency Database (CPDB), 2022):
“And” between values parts separate entries of the source, which are not always exact repeats. Equal entries are not always repeated. The source made the active and inactive calls. No rule for the calls is given here.

System: rodent lifetime carcinogenesis bioassay, tumor incidence TD50
Assay: carcinogenic potency in animals, long-term in vivo studies, CPDB compilation (AID 1745844)
Details: in feed

O=C1CN(N=Cc2ccc([N+](=O)[O-])o2)C(=O)N1
54.3 mg/kg/day: TD50 (rat, strain Sprague-Dawley, females, site: mammary gland, lesion: fibroadenoma, dosed 104 weeks, study length 104 weeks)
active: TD50 (mouse, strain B6C3F1, females, site: ovary, lesion: granulosa-cell tumor, benign + granulosa-cell tumor, malignant, dosed 103 weeks, study length 105 weeks) 2560 mg/kg/day | TD50 (mouse, strain B6C3F1, females, site: ovary, lesion: granulosa-cell tumor, benign, dosed 103 weeks, study length 105 weeks) 8470 mg/kg/day | TD50 (mouse, strain B6C3F1, females, site: ovary, lesion: mixed tumor, benign + tubular adenoma, dosed 103 weeks, study length 105 weeks) 1400 mg/kg/day | TD50 (mouse, strain B6C3F1, females, site: ovary, lesion: mixed tumor, benign, dosed 103 weeks, study length 105 weeks) 3380 mg/kg/day | TD50 (mouse, strain B6C3F1, females, site: ovary, lesion: tubular adenoma, dosed 103 weeks, study length 105 weeks) 2530 mg/kg/day | TD50 (rat, strain Fischer 344, males, site: kidney, lesion: tubule adenoma + tubule carcinoma, dosed 103 weeks, study length 105 weeks) 163 mg/kg/day and 698 mg/kg/day
866 mg/kg/day: TD50 (mouse, strain B6C3F1, females, site: ovary, lesion: granulosa-cell tumor, benign + granulosa-cell tumor, malignant + mixed tumor, benign + tubular adenoma, dosed 103 weeks, study length 105 weeks)
332 mg/kg/day: TD50 (rat, strain Fischer 344, males, site: liver, lesion: hepatocellular adenoma + hepatocellular carcinoma + neoplastic nodule, dosed 103 weeks, study length 105 weeks)
2330 mg/kg/day: TD50 (mouse, strain B6C3F1, females, site: liver, lesion: hepatocellular adenoma + hepatocellular carcinoma + neoplastic nodule, dosed 103 weeks, study length 105 weeks)
inactive: TD50 (mouse, strain B6C3F1, females, site: cervix uteri, lesion: leiomyosarcoma, dosed 64 weeks, study length 64 weeks) 4000 mg/kg/day | TD50 (mouse, strain B6C3F1, females, site: ovary, lesion: granulosa-cell tumor, dosed 64 weeks, study length 64 weeks) 4020 mg/kg/day | carcinogen call (mouse, strain B6C3F1, males, site: any site (literature study), lesion: several types, types named in the paper, dosed 103 weeks, study length 105 weeks) negative | carcinogen call (mouse, strain BDF1, females, site: any site (literature study), lesion: several types, types named in the paper, dosed 104 weeks, study length 104 weeks) negative | carcinogen call (mouse, strain BDF1, females, site: liver, lesion: hemangioma, dosed 104 weeks, study length 104 weeks) negative | carcinogen call (mouse, strain BDF1, females, site: lung, lesion: adenocarcinoma, dosed 104 weeks, study length 104 weeks) negative | carcinogen call (mouse, strain BDF1, males, site: any site (literature study), lesion: several types, types named in the paper, dosed 104 weeks, study length 104 weeks) negative | carcinogen call (mouse, strain BDF1, males, site: liver, lesion: adenoma, dosed 104 weeks, study length 104 weeks) negative | carcinogen call (mouse, strain BDF1, males, site: liver, lesion: hemangioma, dosed 104 weeks, study length 104 weeks) negative | TD50 (mouse, strain BDF1, males, site: lung, lesion: adenoma, dosed 104 weeks, study length 104 weeks) 53900 mg/kg/day | TD50 (mouse, strain Charles River CD1, females, site: liver, lesion: hemangioma, dosed 93 weeks, study length 100 weeks) 4460 mg/kg/day | carcinogen call (mouse, strain Charles River CD1, females, site: liver, lesion: hemangiosarcoma, dosed 93 weeks, study length 100 weeks) negative | carcinogen call (mouse, strain Charles River CD1, females, site: liver, lesion: hepatocellular adenoma, dosed 93 weeks, study length 100 weeks) negative | carcinogen call (mouse, strain Charles River CD1, females, site: lung, lesion: alveolar-cell adenoma, dosed 93 weeks, study length 100 weeks) negative | carcinogen call (mouse, strain Charles River CD1, females, site: lung, lesion: alveolar-cell carcinoma, dosed 93 weeks, study length 100 weeks) negative | TD50 (mouse, strain Charles River CD1, males, site: all sites, lesion: myeloid leukemia, dosed 93 weeks, study length 100 weeks) 588 mg/kg/day | carcinogen call (mouse, strain Charles River CD1, males, site: liver, lesion: hemangiosarcoma, dosed 93 weeks, study length 100 weeks) negative | TD50 (mouse, strain Charles River CD1, males, site: liver, lesion: hepatocellular adenoma, dosed 93 weeks, study length 100 weeks) 1200 mg/kg/day | carcinogen call (mouse, strain Charles River CD1, males, site: liver, lesion: hepatocellular carcinoma, dosed 93 weeks, study length 100 weeks) negative | TD50 (mouse, strain Charles River CD1, males, site: lung, lesion: alveolar-cell adenoma, dosed 93 weeks, study length 100 weeks) 833 mg/kg/day | TD50 (mouse, strain Charles River CD1, males, site: lung, lesion: alveolar-cell carcinoma, dosed 93 weeks, study length 100 weeks) 17000 mg/kg/day | carcinogen call (rat, strain Charles River CD (Sprague-Dawley), females, site: any site (literature study), lesion: malignant tumor, dosed 104 weeks, study length 104 weeks) negative | carcinogen call (rat, strain Charles River CD (Sprague-Dawley), females, site: any site (literature study), lesion: one or several types, types not named, dosed 104 weeks, study length 104 weeks) negative | carcinogen call (rat, strain Charles River CD (Sprague-Dawley), females, site: mammary gland, lesion: several types, types named in the paper, dosed 104 weeks, study length 104 weeks) negative | TD50 (rat, strain Charles River CD (Sprague-Dawley), males, site: any site (literature study), lesion: malignant tumor, dosed 104 weeks, study length 104 weeks) 1200 mg/kg/day | carcinogen call (rat, strain Charles River CD (Sprague-Dawley), males, site: any site (literature study), lesion: one or several types, types not named, dosed 104 weeks, study length 104 weeks) negative | TD50 (rat, strain Charles River CD (Sprague-Dawley), males, site: mammary gland, lesion: fibroadenoma, dosed 104 weeks, study length 104 weeks) 878 mg/kg/day | TD50 (rat, strain Fischer 344, females, site: clitoral gland, lesion: adenoma, dosed 103 weeks, study length 105 weeks) 93.7 mg/kg/day | carcinogen call (rat, strain Fischer 344, males, site: urinary bladder, lesion: one or several types, types not named, dosed 104 weeks, study length 104 weeks) negative | TD50 (rat, strain Holtzman albino (Sprague-Dawley derived), females, site: mammary gland, lesion: fibroadenoma, dosed 36 weeks, study length 54 weeks) 120 mg/kg/day | TD50 (rat, strain Holtzman albino (Sprague-Dawley derived), females, site: mammary tissue, wider than the gland, lesion: one or several types, types not named, dosed 44 weeks, study length 60 weeks) 214 mg/kg/day | TD50 (rat, strain Sprague-Dawley, females, site: any site (literature study), lesion: several types, types named in the paper, dosed 75 weeks, study length 80 weeks) 185 mg/kg/day
64.2 mg/kg/day: TD50 (rat, strain Sprague-Dawley, females, site: any site (literature study), lesion: several types, types named in the paper, dosed 104 weeks, study length 104 weeks)
303 mg/kg/day: TD50 (rat, strain Fischer 344, males, site: subcutaneous tissue, lesion: fibroma, dosed 103 weeks, study length 105 weeks)
